Consider 2 compounds from US4489091A, “Antilipemic and anti-inflammatory compositions containing sulfonate derivatives” (Taiho Pharmaceutical Company Limited, priority 1980, dated 1984).

For data set [1] the following is noted: reported in the literature; cited from earlier work.
Another data set has as its system triglycerides. Put plainly: Antilipemic effect: percent triglycerides inhibition in plasma of rats given an olive oil-cholesterol mixture. The note with it: oral 100 mg/kg, plasma 2 hours after dosing, Wistar rat; read-out: Anti-lipemic effect, TG (percent triglycerides inhibition). The class given is in vivo, male Wistar rats. The procedure, abridged: (§1)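 Male Wistar rats, seven weeks old, 200 to 220 g, 5 per group, dosed orally at 100 or 200 mg/kg in olive oil-cholesterol mixture (15% cholesterol) at 10 ml/kg. Plasma triglycerides measured at 2 hours, total cholesterol at 8 hours, by enzymatic kits; percent inhibition calculated relative to vehicle control and untreated normal groups.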

Another data set relates to cholesterol. Kind of data set: Antilipemic effect: percent total cholesterol inhibition in plasma of rats given an olive oil-cholesterol mixture. The class given is in vivo, male Wistar rats. The note with it: oral 100 mg/kg, plasma 8 hours after dosing, Wistar rat; read-out: Anti-lipemic effect, CS (percent cholesterol inhibition). The procedure, abridged:
as §1

The nature of another data set: Acute toxicity. To be noted: rat, in vivo, po. An excerpt: Six-week-old male Wistar rats weighing 180 to 200 g are used, 5 rats in each group. Each compound of the invention is suspended in a 30% aqueous solution of polyethylene glycol 6000 and orally given to the rat at the dosage shown in Table 2. The animals are checked for poisoning, body weight and survival to determine the LD50 value.

Another data set has as its target esterase. Put plainly: Esterase inhibiting activity. Format: biochemical. To be noted: rat liver microsome esterase, methyl butyrate substrate, pH 8.0, 37° C., 60 minutes; read-out: IC50 for esterases. As for the experimental part: A 10 micromole quantity of methyl butyrate in a 50% ethanol solution is added as a substrate to a specified amount of buffer solution containing 0.1 mole of trishydrochloric acid (pH 8.0). To the mixture is further added a 50% ethanol solution of the compound of the invention, immediately followed by addition of an esterase solution prepared from a purified microsome fraction of the liver of a rat (adjusted to hydrolyze 9 micromoles of methyl butyrate at 37° C. in one hour) as an enzyme solution. The mixture is reacted at 37° C. for 60 minutes.
After the reaction, alkaline hydroxylamine is added to the mixture to form a hydroxamic acid derivative of methyl butyrate, and a ferric salt is added to the derivative. The resulting red color is colorimetrically determined (at a wavelength of 540 nm) to determine the amount of remaining methyl butyrate. The esterase inhibiting ratios of the present compound at least at three concentrations are plotted as ordinate, and the logarithms of the concentrations as abscissa to obtain a line, which gives the 50% inhibition concentration (IC50).

The target of the next data set is chymotripsin (Bos taurus, UniProt P00766). Put plainly: Chymotripsin inhibiting activity. Format: biochemical. The note with it: 0.5 h; compound 1×10^-4 mole, ATEE substrate, pH 8.0, 37° C.; read-out: Percent chymotripsin inhibition. As for the experimental part: Chymotripsin (0.1 unit) serving as an enzyme solution is added to a specified quantity of buffer solution containing 0.1 mole of trishydrochloric acid (pH 8.0). To the mixture is further added a 50% ethanol solution of the compound of the invention so that the resulting mixture contains the compound in a concentration of 1×10^-4 mole. The mixture is reacted at 37° C. for 20 minutes.
On completion of the reaction, 10 micromoles of N-acetyl-L-thyrosine ethyl ester (ATEE) serving as a substrate is added to the mixture, and the resulting mixture is reacted at 37° C. for 30 minutes.
After the completion of the reaction, the amount of remaining ATEE is determined by the same hydroxamic acid method as above. The percent chymotripsin inhibition is given by [formula] wherein A is the amount of hydrolyzed esters in the reaction system not containing the compound of the invention, and B is the amount of hydrolyzed esters in the reaction system containing the present compound.

The structures appear in SMILES notation.

On to `O=C(O)c1cccnc1` [nicotinic acid], for which the Side effects result in data set [1] is “pruritus and cutaneous flushing due to vasodilatation, gastrointestinal disorders, abnormalities in liver function and glucose intolerance”.
As to `CCCCCCCC(=O)COS(=O)(=O)c1ccc(OC)cc1` [Compound 37], the inhibition in vivo at 100 mg/kg in the data set on triglycerides and in the data set with cholesterol was 62% throughout. For the same compound, the LD50 (commonly the dose at which mortality reaches 50%) in “Acute toxicity” is greater than 3000 mg/kg. Also, at esterase, the 50% inhibitory concentration (IC50) – broadly, the midpoint of a concentration-inhibition curve – amounted to 150 nM. In addition, the inhibition (commonly the percentage by which the read-out fell short of the control) at 100 µM at chymotripsin amounted to 91%.
